From patent US8598078B2, “Condensed anthran I lami de derivatives as insecticides” (Syngenta Crop Protection, LLC, priority 2007, dated 2013)
Read-outs that look alike come from different tables or passages of the source.

Assays:
Assay type in all cases: in vivo
[1] = tested on: Spodoptera littoralis (Egyptian cotton leafworm); test: Activity against Spodoptera littoralis (larvicide, feeding/residual contact activity, preventive), cotton leaf discs; settings: foliar, 72 h, read-out: activity (mortality, repellent effect, feeding behaviour, growth regulation)
Source text: Activity Against Spodoptera littoralis (Egyptian Cotton Leafworm)
(§1) (Larvicide, Feeding/Residual Contact Activity, Preventive)
Cotton leaf discs were placed on agar in a 24-well microtiter plate and sprayed with test solutions. After drying, the leaf discs were infested with 5 L1 larvae. The samples were checked for mortality, repellent effect, feeding behaviour, and growth regulation 3 days after treatment.

[2] = tested on: Plutella xylostella (diamond back moth); test: Plutella xylostella (larvicide, feeding/residual contact activity, preventive), artificial diet MTP; settings: 120 h, read-out: activity (larval mortality, antifeedant, growth regulation)
Protocol: Plutella xylostella (Diamond Back Moth)
as §1
24-well microtiter plate (MTP) with artificial diet was treated with test solutions by pipetting. After drying, the MTP's were infested with larvae (L2) (10-15 per well). After an incubation period of 5 days, samples were checked for larval mortality, antifeedant and growth regulation.

[3] = tested on: Myzus persicae (green peach aphid); test: Activity against Myzus persicae (mixed population, systemic/feeding activity, curative), pea seedling roots in test solution; settings: 144 h, read-out: activity (mortality and special effects on the plant)
Source text: (§2) Activity Against Myzus persicae (Green Peach Aphid)
(Mixed Population, Systemic/Feeding Activity, Curative)
Roots of pea seedlings, infested with an aphid population of mixed ages, were placed directly in the test solutions. 6 days after introduction, samples were checked for mortality and special effects on the plant.

[4] = tested on: Myzus persicae (green peach aphid); test: Activity against Myzus persicae (mixed population, feeding/residual contact activity, preventive), sunflower leaf discs; settings: foliar, 144 h, read-out: activity (mortality and special effects)
Protocol: as §2
(§3) (Mixed Population, Feeding/Residual Contact Activity, Preventive)
Sunflower leaf discs were placed on agar in a 24-well microtiter plate and sprayed with test solutions. After drying, the leaf discs were infested with an aphid population of mixed ages. After an incubation period of 6 days, samples were checked for mortality and special effects (e.g. phytotoxicity).

[5] = tested on: Thrips tabaci (onion thrips); test: Activity against Thrips tabaci (mixed population, feeding/residual contact activity, preventive), sunflower leaf discs; settings: foliar, 144 h, read-out: activity (mortality and special effects)
Protocol: Activity Against Thrips tabaci (Onion Thrips)
as §3
Sunflower leaf discs were placed on agar in a 24-well microtiter plate and sprayed with test solutions. After drying, the leaf discs were infested with a thrips population of mixed ages. After an incubation period of 6 days, samples were checked for mortality and special effects (e.g. phytotoxicity).

[6] = tested on: Heliothis virescens (tobacco budworm); test: Activity against Heliothis virescens (ovo-larvicide, feeding/contact activity, curative), eggs on artificial diet; settings: read-out: activity (egg mortality, larval mortality, growth regulation)
Protocol: Activity Against Heliothis virescens (Tobacco Budworm)
(Ovo-Larvicide, Feeding/Contact Activity, Curative)
Eggs (0-24 h old) were placed in 24-well microtiter plate on artificial diet and treated with test solutions by pipetting. After an incubation period of 4 days, samples were checked for egg mortality, larval mortality, and growth regulation.

[7] = tested on: Diabrotica balteata (corn root worm); test: Diabrotica balteata (larvicide, feeding/residual contact activity, preventive), artificial diet MTP; settings: 120 h, read-out: activity (larval mortality, antifeedant, growth regulation)
Protocol: Diabrotica balteata (Corn Root Worm)
as §1
24-well microtiter plate (MTP) with artificial diet was treated with test solutions by pipetting. After drying, the MTP's were infested with larvae (L2) (6-10 per well). After an incubation period of 5 days, samples were checked for larval mortality, antifeedant and growth regulation.

[8] = 400 ppm, L1 larvae on sprayed cotton leaf discs, 3 days after treatment
[9] = 400 ppm, L2 larvae on treated artificial diet, 5 days incubation
[10] = 400 ppm, mixed-age aphids on sprayed sunflower leaf discs, 6 days incubation
[11] = 400 ppm, eggs 0-24 h old on artificial diet, 4 days incubation
[12] = 400 ppm, systemic, roots of infested pea seedlings in test solution, 6 days

Measured: mortality at 400 ppm

COCn1cc2cc(C)c(NC(=O)c3cc(OC)nn3-c3ncccc3Cl)c(C(=O)NC(C)C)c2n1 [P.3]
> 80%: [1] | [2] | [3] | [4] | [5] | [6]

COCn1cc2cc(Cl)c(NC(=O)c3cc(C(F)(F)F)nn3-c3ncccc3Cl)c(C(=O)NC(C)C)c2n1 [P.6]
> 80%: [1] | [2] | [3] | [4] | [5] | [7] | [6]

C#CCn1cc2cc(C)c(NC(=O)c3cc(OC)nn3-c3ncccc3Cl)c(C(=O)NC(C)C)c2n1 [P.7]
> 80%: [1] | [2] | [3] | [4] | [5] | [7] | [6]

C=CCn1cc2cc(C)c(NC(=O)c3cc(OC)nn3-c3ncccc3Cl)c(C(=O)NC(C)C)c2n1 [P.8]
> 80%: [1] | [2] | [3] | [4] | [5] | [7] | [6]

COc1cc(C(=O)Nc2c(C)cc3cn(CC(F)(F)F)nc3c2C(=O)NC(C)C)n(-c2ncccc2Cl)n1 [P.10]
> 80%: [1] | [2] | [4] | [5] | [6]

COC(=O)N(C)Cn1cc2cc(C)c(NC(=O)c3cc(OC)nn3-c3ncccc3Cl)c(C(=O)NC(C)C)c2n1 [P.11]
> 80%: [1] | [2] | [3] | [4] | [5] | [7] | [6]

COCCOCn1ncc2cc(C)c(NC(=O)c3cc(OC)nn3-c3ncccc3Cl)c(C(=O)NC(C)C)c21 [P.13, 6-{[2-(3-chloro-pyridin-2-yl)-5-methoxy-2H-pyrazole-3-carbonyl]-amino}-1-(2-methoxy-ethoxymethyl)-5-methyl-1H-indazole-7-carboxylic acid isopropylamide]
> 80%: [1] | [2] | [3] | [4] | [5] | [6]

COc1cc(C(=O)Nc2c(C)cc3cnn(CC#N)c3c2C(=O)NC(C)C)n(-c2ncccc2Cl)n1 [P.14]
> 80%: [1] | [2] | [3] | [4] | [5] | [6]

COC(=O)N(C)Cn1ncc2cc(C)c(NC(=O)c3cc(OC)nn3-c3ncccc3Cl)c(C(=O)NC(C)C)c21 [P.15]
> 80%: [1] | [2] | [3] | [4] | [5] | [7] | [6]

CCS(=O)(=O)N(C)Cn1cc2cc(C)c(NC(=O)c3cc(OC)nn3-c3ncccc3Cl)c(C(=O)NC(C)C)c2n1 [P.17]
> 80%: [1] | [2] | [3] | [4] | [6]

CCS(=O)(=O)N(C)Cn1ncc2cc(C)c(NC(=O)c3cc(OC)nn3-c3ncccc3Cl)c(C(=O)NC(C)C)c21 [P.18]
> 80%: [1] | [2] | [3] | [4] | [6]

CCCCCCOCCOC(=O)n1cc2cc(C)c(NC(=O)c3cc(OC)nn3-c3ncccc3Cl)c(C(=O)NC(C)C)c2n1 [P.24]
> 80%: [1] | [2] | [3] | [4] | [7] | [6]

CCCCCCCC/C=C\CCCCCCCC(=O)n1cc2cc(C)c(NC(=O)c3cc(OC)nn3-c3ncccc3Cl)c(C(=O)NC(C)C)c2n1 [P.25]
> 80%: [1]; [8] | [2]; [9] | [4]; [10] | [5]; 400 ppm, mixed-age thrips on sprayed sunflower leaf discs, 6 days incubation | [6]; [11]

CCCCCCCCCCOCCOC(=O)n1cc2cc(C)c(NC(=O)c3cc(OC)nn3-c3ncccc3Cl)c(C(=O)NC(C)(C)C)c2n1 [P.28]
> 80%: [1]; [8] | [2]; [9] | [3]; [12] | [4]; [10] | [6]; [11]

CCCCCCCCCCCCCCCCCCOCCOC(=O)n1cc2cc(C)c(NC(=O)c3cc(OC)nn3-c3ncccc3Cl)c(C(=O)NC(C)C)c2n1 [P.30]
> 80%: [1]; [8] | [2]; [9] | [3]; [12] | [4]; [10] | [7]; [9] | [6]; [11]

COc1cc(C(=O)Nc2c(C)cc3cn(Cc4ccccc4)nc3c2C(=O)NC(C)C)n(-c2ncccc2Cl)n1 [P.33]
> 80%: [1] | [2] | [4] | [5] | [7] | [6]

COc1ccc(Cn2cc3cc(C)c(NC(=O)c4cc(OC)nn4-c4ncccc4Cl)c(C(=O)NC(C)C)c3n2)cc1 [P.34, 6-{[2-(3-chloro-pyridin-2-yl)-5-methoxy-2H-pyrazole-3-carbonyl]-amino}-2-(4-methoxy-benzyl)-5-methyl-2H-indazole-7-carboxylic acid isopropyl amide]
> 80%: [1] | [2] | [3] | [4] | [5] | [6]

CCCCN(CCCC)C(=O)n1cc2cc(C)c(NC(=O)c3cc(OC)nn3-c3ncccc3Cl)c(C(=O)NC(C)C)c2n1 [P.35]
> 80%: [2] | [5] | [6]

COc1cc(C(=O)Nc2c(C)cc3cn(C(=O)N(C)c4ccccc4)nc3c2C(=O)NC(C)C)n(-c2ncccc2Cl)n1 [P.36]
> 80%: [2] | [3] | [5] | [6]
